Measured values published in ChEMBL document CHEMBL4840306, “Chemodynamic therapy agents Cu(II) complexes of quinoline derivatives induced ER stress and mitochondria-mediated apoptosis in SK-OV-3 cells” (Eur J Med Chem, 2021).

Columns and labels:
T-24 = experiment: Cytotoxicity against human T-24 cells assessed as reduction in cell viability measured after 48 hrs by MTT assay; format: functional, cell-based; conditions: T-24, 48 h
MGC-803 = experiment: Cytotoxicity against human MGC-803 cells assessed as reduction in cell viability measured after 48 hrs by MTT assay; format: functional, cell-based; conditions: MGC-803, 48 h
L02 = experiment: Cytotoxicity against human HL7702 cells assessed as reduction in cell viability measured after 48 hrs by MTT assay; format: cell-based; conditions: L02, 48 h
HepG2 = experiment: Cytotoxicity against human HepG2 cells assessed as reduction in cell viability measured after 48 hrs by MTT assay; format: functional, cell-based; conditions: HepG2, 48 h
SK-OV-3 = experiment: Cytotoxicity against human SK-OV-3 cells assessed as reduction in cell viability measured after 48 hrs by MTT assay; format: functional, cell-based; conditions: SK-OV-3, 48 h
WI-38 = experiment: Cytotoxicity against human WI-38 cells assessed as reduction in cell viability measured after 48 hrs by MTT assay; format: cell-based; conditions: WI-38, 48 h

Oc1cccc(/C=N/c2cc3ccccc3nc2-c2ccccc2F)c1O
IC50 (T-24): > 40 µM | IC50 (MGC-803): > 40 µM | IC50 (L02): 34 µM | IC50 (HepG2): > 40 µM | IC50 (SK-OV-3): 23.6 µM | IC50 (WI-38): > 40 µM
